# System: HCT116 cells
# Assay: In vitro cytotoxicity measured by the cell colony formation assay
# Format: cell-based
# Conditions: HCT116 cells, 72 h incubation with drug, colonies counted after 7 days; ID50 = drug concentration producing 50% inhibition of colony formation; read-out: IN VITRO ID 50 (nm) HCT116
# In short: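 Colony-forming survival was scored 7 days after a 72 h, 37 °C compound exposure followed by washout into fresh medium.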
row,Structure (SMILES),IC50 [nM]
1,CCOC(=O)O[C@H]1C[C@H]2OC[C@@]2(OC(C)=O)C2[C@H](OC(=O)c3ccccc3)[C@]3(O)C[C@H](OC(=O)[C@H](O)[C@@H](NC(=O)OCC(C)C)c4ccco4)C(C)=C([C@@H](O)C(=O)[C@@]21C)C3(C)C (stereo partly shown) [Compound 4696],< 1
2,CCOC(=O)O[C@H]1C(=O)[C@@]2(C)C([C@H](OC(=O)c3ccccc3)[C@]3(O)C[C@H](OC(=O)[C@H](O)[C@H](C=C(C)C)NC(=O)OCC(C)C)C(C)=C1C3(C)C)[C@]1(OC(C)=O)CO[C@@H]1C[C@@H]2O (stereo partly shown) [Compound 5155],< 10
3,CCOC(=O)O[C@H]1C(=O)[C@@]2(C)C([C@H](OC(=O)c3ccccc3)[C@]3(O)C[C@H](OC(=O)[C@H](O)[C@@H](NC(=O)c4ccccn4)c4cccs4)C(C)=C1C3(C)C)[C@]1(OC(C)=O)CO[C@@H]1C[C@@H]2O (stereo partly shown) [Compound 3433],22.3
4,CCOC(=O)O[C@H]1C(=O)[C@@]2(C)C([C@H](OC(=O)c3ccccc3)[C@]3(O)C[C@H](OC(=O)[C@H](O)[C@@H](NC(=O)OC(C)(C)C)c4ccccc4)C(C)=C1C3(C)C)[C@]1(OC(C)=O)CO[C@@H]1C[C@@H]2O (stereo partly shown) [Compound 1771],< 10
5,CCOC(=O)O[C@H]1C(=O)[C@@]2(C)C([C@H](OC(=O)c3ccccc3)[C@]3(O)C[C@H](OC(=O)[C@H](O)[C@@H](NC(=O)c4ccncc4)c4cccs4)C(C)=C1C3(C)C)[C@]1(OC(C)=O)CO[C@@H]1C[C@@H]2O (stereo partly shown) [Compound 3393],> 50
6,CCOC(=O)O[C@H]1C[C@H]2OC[C@@]2(OC(C)=O)C2[C@H](OC(=O)c3ccccc3)[C@]3(O)C[C@H](OC(=O)[C@H](O)[C@@H](NC(=O)C=C(C)C)c4cccs4)C(C)=C([C@@H](O)C(=O)[C@@]21C)C3(C)C (stereo partly shown) [Compound 4164],< 1
7,COC(=O)O[C@H]1C[C@H]2OC[C@@]2(OC(C)=O)C2[C@H](OC(=O)c3ccccc3)[C@]3(O)C[C@H](OC(=O)[C@H](O)[C@@H](NC(=O)OCC(C)C)C4CC4)C(C)=C([C@@H](O)C(=O)[C@@]21C)C3(C)C (stereo partly shown) [Compound 5211],< 10
8,COC(=O)O[C@H]1C(=O)[C@@]2(C)C([C@H](OC(=O)c3ccccc3)[C@]3(O)C[C@H](OC(=O)[C@H](O)[C@@H](NC(=O)OC(C)(C)C)c4cccs4)C(C)=C1C3(C)C)[C@]1(OC(C)=O)CO[C@@H]1C[C@@H]2O (stereo partly shown) [Compound 2044],< 1
9,COC(=O)O[C@H]1C(=O)[C@@]2(C)C([C@H](OC(=O)c3ccccc3)[C@]3(O)C[C@H](OC(=O)[C@H](O)[C@@H](NC(=O)OC(C)(C)C)c4ccccn4)C(C)=C1C3(C)C)[C@]1(OC(C)=O)CO[C@@H]1C[C@@H]2O (stereo partly shown) [Compound 2002],< 1
10,C/C=C/C(=O)N[C@@H](c1ccoc1)[C@@H](O)C(=O)O[C@H]1C[C@@]2(O)[C@@H](OC(=O)c3ccccc3)C3[C@](C)(C(=O)[C@H](O)C(=C1C)C2(C)C)[C@@H](OC(=O)OC)C[C@H]1OC[C@@]31OC(C)=O (stereo partly shown) [Compound 4877],< 1

# Same assay, conditions: HCT116 colony formation; 72 h drug incubation, colonies counted after 7 days; Example 5, C-7 ester/C-10 hydroxy taxanes; read-out: IN VITRO ID 50 (nm) HCT116
row,Structure (SMILES),IC50 [nM]
1,CCC(=O)O[C@H]1C[C@H]2OC[C@@]2(OC(C)=O)C2[C@H](OC(=O)c3ccccc3)[C@]3(O)C[C@H](OC(=O)[C@H](O)[C@@H](NC(=O)OC(C)(C)C)c4ccncc4)C(C)=C([C@@H](O)C(=O)[C@@]21C)C3(C)C (stereo partly shown) [Compound 1386],< 1
2,C/C=C/C(=O)N[C@@H](c1ccco1)[C@@H](O)C(=O)O[C@H]1C[C@@]2(O)[C@@H](OC(=O)c3ccccc3)C3[C@](C)(C(=O)[C@H](O)C(=C1C)C2(C)C)[C@@H](OC(=O)CC)C[C@H]1OC[C@@]31OC(C)=O (stereo partly shown) [Compound 3708],< 1
3,CCC(=O)O[C@H]1C[C@H]2OC[C@@]2(OC(C)=O)C2[C@H](OC(=O)c3ccccc3)[C@]3(O)C[C@H](OC(=O)[C@H](O)[C@@H](NC(=O)OC(C)C)c4cccs4)C(C)=C([C@@H](O)C(=O)[C@@]21C)C3(C)C (stereo partly shown) [Compound 3082],< 1
4,CCC(=O)O[C@H]1C[C@H]2OC[C@@]2(OC(C)=O)C2[C@H](OC(=O)c3ccccc3)[C@]3(O)C[C@H](OC(=O)[C@H](O)[C@@H](NC(=O)OC(C)(C)C)c4nccs4)C(C)=C([C@@H](O)C(=O)[C@@]21C)C3(C)C (stereo partly shown) [Compound 6363],< 10
5,CCCCC(=O)O[C@H]1C[C@H]2OC[C@@]2(OC(C)=O)C2[C@H](OC(=O)c3ccccc3)[C@]3(O)C[C@H](OC(=O)[C@H](O)[C@@H](NC(=O)OC(C)(C)CC)c4ccco4)C(C)=C([C@@H](O)C(=O)[C@@]21C)C3(C)C (stereo partly shown) [Compound 6343],< 10

# Same assay, conditions: HCT116 colony formation; 72 h drug incubation, colonies counted after 7 days; Example 10, C-10 ester/C-7 hydroxy taxanes; read-out: IN VITRO ID 50 (nm) HCT116
row,Structure (SMILES),IC50 [nM]
1,CCC(=O)O[C@H]1C(=O)[C@@]2(C)C([C@H](OC(=O)c3ccccc3)[C@]3(O)C[C@H](OC(=O)[C@H](O)[C@@H](NC(=O)c4ccccc4)c4cccnc4)C(C)=C1C3(C)C)[C@]1(OC(C)=O)CO[C@@H]1C[C@@H]2O (stereo partly shown) [Compound 0647],12
2,CC(=O)OC12COC1CC(O)C1(C)C(=O)C(OC(=O)c3ccco3)C3=C(C)C(OC(=O)C(O)C(NC(=O)OC(C)(C)C)C4CCC4)CC(O)(C(OC(=O)c4ccccc4)C21)C3(C)C (stereo not shown) [Compound 2199],< 10
3,C/C=C/C(=O)N[C@@H](c1ccoc1)[C@@H](O)C(=O)O[C@H]1C[C@@]2(O)[C@@H](OC(=O)c3ccccc3)C3[C@](C)(C(=O)[C@H](OC(=O)C4CC4)C(=C1C)C2(C)C)[C@@H](O)C[C@H]1OC[C@@]31OC(C)=O (stereo partly shown) [Compound 4944],< 1
4,CC(=O)OC12COC1CC(O)C1(C)C(=O)C(OC(=O)c3ccco3)C3=C(C)C(OC(=O)C(O)C(NC(=O)OC(C)(C)C)c4ccncc4)CC(O)(C(OC(=O)c4ccccc4)C21)C3(C)C (stereo not shown) [Compound 2132],< 1
5,CC(=O)OC12COC1CC(O)C1(C)C(=O)C(OC(=O)c3ccco3)C3=C(C)C(OC(=O)C(O)C(NC(=O)OC(C)(C)C)c4cccs4)CC(O)(C(OC(=O)c4ccccc4)C21)C3(C)C (stereo not shown) [Compound 2164],< 1
6,CCC(=O)O[C@H]1C(=O)[C@@]2(C)C([C@H](OC(=O)c3ccccc3)[C@]3(O)C[C@H](OC(=O)[C@H](O)[C@@H](NC(=O)c4ccncc4)c4cccs4)C(C)=C1C3(C)C)[C@]1(OC(C)=O)CO[C@@H]1C[C@@H]2O (stereo partly shown) [Compound 4207],< 10
7,C/C=C/C(=O)N[C@@H](c1ccco1)[C@@H](O)C(=O)O[C@H]1C[C@@]2(O)[C@@H](OC(=O)c3ccccc3)C3[C@](C)(C(=O)[C@H](OC(=O)CC)C(=C1C)C2(C)C)[C@@H](O)C[C@H]1OC[C@@]31OC(C)=O (stereo partly shown) [Compound 3982],< 1
8,CC(=O)O[C@@]12CO[C@@H]1C[C@H](O)[C@@]1(C)C(=O)[C@H](OC(=O)C3CC3)C3=C(C)[C@@H](OC(=O)[C@H](O)[C@@H](NC(=O)OC(C)(C)C)c4ccc([N+](=O)[O-])cc4)C[C@@](O)([C@@H](OC(=O)c4ccccc4)C12)C3(C)C (stereo partly shown) [Compound 0879],< 1
9,CC(=O)O[C@@]12CO[C@@H]1C[C@H](O)[C@@]1(C)C(=O)[C@H](OC(=O)C3CC3)C3=C(C)[C@@H](OC(=O)[C@H](O)[C@@H](NC(=O)OC(C)(C)C)c4ccco4)C[C@@](O)([C@@H](OC(=O)c4ccccc4)C12)C3(C)C (stereo partly shown) [Compound 0843],< 1
10,CCCC(=O)O[C@H]1C(=O)[C@@]2(C)C([C@H](OC(=O)c3ccccc3)[C@]3(O)C[C@H](OC(=O)[C@H](O)[C@@H](NC(=O)c4ccccc4)c4cccs4)C(C)=C1C3(C)C)[C@]1(OC(C)=O)CO[C@@H]1C[C@@H]2O (stereo partly shown) [Compound 3258],< 1
11,CC(=O)O[C@@]12CO[C@@H]1C[C@H](O)[C@@]1(C)C(=O)[C@H](OC(=O)C(C)C)C3=C(C)[C@@H](OC(=O)[C@H](O)[C@@H](NC(=O)OC(C)(C)C)C(C)C)C[C@@](O)([C@@H](OC(=O)c4ccccc4)C12)C3(C)C (stereo partly shown) [Compound 2306],< 10
12,C/C=C/C(=O)O[C@H]1C(=O)[C@@]2(C)C([C@H](OC(=O)c3ccccc3)[C@]3(O)C[C@H](OC(=O)[C@H](O)[C@@H](NC(=O)OC(C)(C)C)c4ccc([N+](=O)[O-])cc4)C(C)=C1C3(C)C)[C@]1(OC(C)=O)CO[C@@H]1C[C@@H]2O (stereo partly shown) [Compound 2439],< 10
13,CCCC(=O)OC1C(=O)C2(C)C(O)CC3OCC3(OC(C)=O)C2C(OC(=O)c2ccccc2)C2(O)CC(OC(=O)C(O)C(NC(=O)OC(C)(C)C)c3ccccc3)C(C)=C1C2(C)C (stereo not shown) [Compound 1060],< 1
14,CC(=O)O[C@@]12CO[C@@H]1C[C@H](O)[C@@]1(C)C(=O)[C@H](OC(=O)C3CC3)C3=C(C)[C@@H](OC(=O)[C@H](O)[C@@H](NC(=O)c4ccccc4)c4ccccc4)C[C@@](O)([C@@H](OC(=O)c4ccccc4)C12)C3(C)C (stereo partly shown) [Compound 0937],< 10
15,CCC(=O)O[C@H]1C(=O)[C@@]2(C)C([C@H](OC(=O)c3ccccc3)[C@]3(O)C[C@H](OC(=O)[C@H](O)[C@@H](NC(=O)OC(C)(C)C)C4CCC4)C(C)=C1C3(C)C)[C@]1(OC(C)=O)CO[C@@H]1C[C@@H]2O (stereo partly shown) [Compound 0596],< 10
16,CCCC(=O)N[C@@H](c1cccs1)[C@@H](O)C(=O)O[C@H]1C[C@@]2(O)[C@@H](OC(=O)c3ccccc3)C3[C@](C)(C(=O)[C@H](OC(=O)CCC)C(=C1C)C2(C)C)[C@@H](O)C[C@H]1OC[C@@]31OC(C)=O (stereo partly shown) [Compound 3314],< 1
17,CCCC(=O)N[C@@H](c1ccco1)[C@@H](O)C(=O)O[C@H]1C[C@@]2(O)[C@@H](OC(=O)c3ccccc3)C3[C@](C)(C(=O)[C@H](OC(=O)CC)C(=C1C)C2(C)C)[C@@H](O)C[C@H]1OC[C@@]31OC(C)=O (stereo partly shown) [Compound 3219],< 1

# Same assay, conditions: HCT116 colony formation; 72 h drug incubation, colonies counted after 7 days; Example 15, C-7 substituted acetate/C-10 hydroxy taxanes; read-out: IN VITRO ID 50 (nm) HCT116
row,Structure (SMILES),IC50 [nM]
1,CC(=O)O[C@@]12CO[C@@H]1C[C@H](OC(=O)COc1ccccc1)[C@@]1(C)C(=O)[C@H](O)C3=C(C)[C@@H](OC(=O)[C@H](O)[C@@H](NC(=O)C=C(C)C)c4ccco4)C[C@@](O)([C@@H](OC(=O)c4ccccc4)C12)C3(C)C (stereo partly shown) [Compound 5555],< 1
2,COCC(=O)O[C@H]1C[C@H]2OC[C@@]2(OC(C)=O)C2[C@H](OC(=O)c3ccccc3)[C@]3(O)C[C@H](OC(=O)[C@H](O)[C@@H](NC(=O)C=C(C)C)c4ccco4)C(C)=C([C@@H](O)C(=O)[C@@]21C)C3(C)C (stereo partly shown) [Compound 5474],< 1
